Data taken from ChEMBL document CHEMBL5154747, “Discovery of new carbonic anhydrase IX inhibitors as anticancer agents by toning the hydrophobic and hydrophilic rims of the active site to encounter the dual-tail approach” (Eur J Med Chem, 2022).

Legend:
Assay type in all cases: functional
[1] = system: MOLT-4; test: Anticancer activity against human MOLT-4 cells assessed as cell growth inhibition at 10 uM incubated for 48 hrs by SRB assay relative to control; settings: read-out: GI
[2] = system: A549; test: Anticancer activity against human A549 cells assessed as cell growth inhibition at 10 uM incubated for 48 hrs by SRB assay relative to control; settings: read-out: GI
[3] = system: HOP-62; test: Anticancer activity against human HOP-62 cells assessed as cell growth inhibition at 10 uM incubated for 48 hrs by SRB assay relative to control; settings: read-out: GI
[4] = system: NCI-H226; test: Anticancer activity against human NCI-H226 cells assessed as cell growth inhibition at 10 uM incubated for 48 hrs by SRB assay relative to control; settings: read-out: GI
[5] = system: NCI-H322M; test: Anticancer activity against human NCI-H322M cells assessed as cell growth inhibition at 10 uM incubated for 48 hrs by SRB assay relative to control; settings: read-out: GI
[6] = system: KM12; test: Anticancer activity against human KM12 cells assessed as cell growth inhibition at 10 uM incubated for 48 hrs by SRB assay relative to control; settings: read-out: GI
[7] = system: SF-268; test: Anticancer activity against human SF-268 cells assessed as cell growth inhibition at 10 uM incubated for 48 hrs by SRB assay relative to control; settings: read-out: GI
[8] = system: SF-295; test: Anticancer activity against human SF-295 cells assessed as cell growth inhibition at 10 uM incubated for 48 hrs by SRB assay relative to control; settings: read-out: GI
[9] = system: MDA-MB-435; test: Anticancer activity against human MDA-MB-435 cells assessed as cell growth inhibition at 10 uM incubated for 48 hrs by SRB assay relative to control; settings: read-out: GI
[10] = system: SK-MEL-2; test: Anticancer activity against human SK-MEL-2 cells assessed as cell growth inhibition at 10 uM incubated for 48 hrs by SRB assay relative to control; settings: read-out: GI
[11] = system: UACC-257; test: Anticancer activity against human UACC-257 cells assessed as cell growth inhibition at 10 uM incubated for 48 hrs by SRB assay relative to control; settings: read-out: GI
[12] = system: NCI/ADR-RES; test: Anticancer activity against human NCI/ADR-RES cells assessed as cell growth inhibition at 10 uM incubated for 48 hrs by SRB assay relative to control; settings: read-out: GI
[13] = system: A498; test: Anticancer activity against human A498 cells assessed as cell growth inhibition at 10 uM incubated for 48 hrs by SRB assay relative to control; settings: read-out: GI
[14] = system: TK-10; test: Anticancer activity against human TK-10 cells assessed as cell growth inhibition at 10 uM incubated for 48 hrs by SRB assay relative to control; settings: read-out: GI
[15] = system: PC-3; test: Anticancer activity against human PC-3 cells assessed as cell growth inhibition at 10 uM incubated for 48 hrs by SRB assay relative to control; settings: read-out: GI
[16] = system: DU-145; test: Anticancer activity against human DU-145 cells assessed as cell growth inhibition at 10 uM incubated for 48 hrs by SRB assay relative to control; settings: read-out: GI
[17] = system: MCF7; test: Anticancer activity against human MCF7 cells assessed as cell growth inhibition at 10 uM incubated for 48 hrs by SRB assay relative to control; settings: read-out: GI
[18] = system: MDA-MB-231; test: Anticancer activity against human MDA-MB-231 cells assessed as cell growth inhibition at 10 uM incubated for 48 hrs by SRB assay relative to control; settings: read-out: GI
[19] = system: BT-549; test: Anticancer activity against human BT-549 cells assessed as cell growth inhibition at 10 uM incubated for 48 hrs by SRB assay relative to control; settings: read-out: GI
[20] = system: OVCAR-4; test: Anticancer activity against human OVCAR-4 cells assessed as cell growth inhibition at 10 uM incubated for 48 hrs by SRB assay relative to control; settings: read-out: GI
[21] = system: MOLT-4; test: Anticancer activity against human MOLT-4 cells assessed as cell growth inhibition incubated for 48 hrs by SRB assay; settings: for CC50: read-out: LC50 (the source's name)
[22] = system: SR; test: Anticancer activity against human SR cells assessed as cell growth inhibition incubated for 48 hrs by SRB assay; settings: for CC50: read-out: LC50 (the source's name)
[23] = system: A549; test: Anticancer activity against human A549 cells assessed as cell growth inhibition incubated for 48 hrs by SRB assay
[24] = system: NCI-H23; test: Anticancer activity against human NCI-H23 cells assessed as cell growth inhibition incubated for 48 hrs by SRB assay; settings: for CC50: read-out: LC50 (the source's name)
[25] = system: NCI-H322M; test: Anticancer activity against human NCI-H322M cells assessed as cell growth inhibition incubated for 48 hrs by SRB assay; settings: for CC50: read-out: LC50 (the source's name)
[26] = system: HCT-15; test: Anticancer activity against human HCT-15 cells assessed as cell growth inhibition incubated for 48 hrs by SRB assay; settings: for CC50: read-out: LC50 (the source's name)
[27] = system: HT-29; test: Anticancer activity against human HT-29 cells assessed as cell growth inhibition incubated for 48 hrs by SRB assay; settings: for CC50: read-out: LC50 (the source's name)
[28] = system: SW-620; test: Anticancer activity against human SW-620 cells assessed as cell growth inhibition incubated for 48 hrs by SRB assay; settings: for CC50: read-out: LC50 (the source's name)
[29] = system: Malme-3M; test: Anticancer activity against human Malme-3M cells assessed as cell growth inhibition incubated for 48 hrs by SRB assay; settings: for CC50: read-out: LC50 (the source's name)
[30] = system: SK-MEL-2; test: Anticancer activity against human SK-MEL-2 cells assessed as cell growth inhibition incubated for 48 hrs by SRB assay
[31] = system: SK-MEL-5; test: Anticancer activity against human SK-MEL-5 cells assessed as cell growth inhibition incubated for 48 hrs by SRB assay
[32] = system: IGROV-1; test: Anticancer activity against human IGROV-1 cells assessed as cell growth inhibition incubated for 48 hrs by SRB assay; settings: for CC50: read-out: LC50 (the source's name)
[33] = system: OVCAR-4; test: Anticancer activity against human OVCAR-4 cells assessed as cell growth inhibition incubated for 48 hrs by SRB assay
[34] = system: OVCAR-8; test: Anticancer activity against human OVCAR-8 cells assessed as cell growth inhibition incubated for 48 hrs by SRB assay
[35] = system: 786-0; test: Anticancer activity against human 786-0 cells assessed as cell growth inhibition incubated for 48 hrs by SRB assay
[36] = system: A498; test: Anticancer activity against human A498 cells assessed as cell growth inhibition incubated for 48 hrs by SRB assay; settings: for CC50: read-out: LC50 (the source's name)
[37] = system: RXF 393; test: Anticancer activity against human RXF 393 cells assessed as cell growth inhibition incubated for 48 hrs by SRB assay; settings: for CC50: read-out: LC50 (the source's name)
[38] = system: TK-10; test: Anticancer activity against human TK-10 cells assessed as cell growth inhibition incubated for 48 hrs by SRB assay; settings: for CC50: read-out: LC50 (the source's name)
[39] = system: DU-145; test: Anticancer activity against human DU-145 cells assessed as cell growth inhibition incubated for 48 hrs by SRB assay
[40] = system: MDA-MB-231; test: Anticancer activity against human MDA-MB-231 cells assessed as cell growth inhibition incubated for 48 hrs by SRB assay

Structure (SMILES): Cc1nn(-c2ccccc2)cc1/C=N/Nc1nc(Nc2ccccc2)nc(Nc2ccc(S(N)(=O)=O)cc2)n1
- inhibition of growth at 10 µM [1]: 93%
- inhibition of growth at 10 µM [2]: 128%
- inhibition of growth at 10 µM [3]: 90%
- inhibition of growth at 10 µM [4]: 159%
- inhibition of growth at 10 µM [5]: 90%
- inhibition of growth at 10 µM [6]: 90%
- inhibition of growth at 10 µM [7]: 107%
- inhibition of growth at 10 µM [8]: 89%
- inhibition of growth at 10 µM [9]: 131%
- inhibition of growth at 10 µM [10]: 45%
- inhibition of growth at 10 µM [11]: 44%
- inhibition of growth at 10 µM [12]: 23%
- inhibition of growth at 10 µM [13]: 130%
- inhibition of growth at 10 µM [14]: 55%
- inhibition of growth at 10 µM [15]: 98%
- inhibition of growth at 10 µM [16]: 90%
- inhibition of growth at 10 µM [17]: 169%
- inhibition of growth at 10 µM [18]: 120%
- inhibition of growth at 10 µM [19]: 78%
- inhibition of growth at 10 µM [20]: 85%
- GI50 [21]: 2290 nM
- CC50 [21]: > 100000 nM
- GI50 [22]: 2450 nM
- CC50 [22]: > 100000 nM
- GI50 [23]: 1850 nM
- GI50 [24]: 1740 nM
- CC50 [24]: 7500 nM
- GI50 [25]: 2440 nM
- CC50 [25]: > 100000 nM
- GI50 [26]: 2670 nM
- CC50 [26]: > 100000 nM
- GI50 [27]: 2880 nM
- CC50 [27]: > 100000 nM
- GI50 [28]: 3380 nM
- CC50 [28]: > 100000 nM
- GI50 [29]: 1600 nM
- CC50 [29]: 6130 nM
- GI50 [30]: 1690 nM
- GI50 [31]: 1480 nM
- LC50 [31]: 5300 nM
- GI50 [32]: 2590 nM
- CC50 [32]: > 100000 nM
- GI50 [33]: 2550 nM
- LC50 (concentration killing 50% of cells) [33]: > 100000 nM
- GI50 [34]: 2050 nM
- LC50 [34]: > 100000 nM
- GI50 [35]: 2130 nM
- GI50 [36]: 1710 nM
- CC50 [36]: 6710 nM
- GI50 [37]: 1770 nM
- CC50 [37]: 6500 nM
- GI50 [38]: 1480 nM
- CC50 [38]: 8250 nM
- GI50 [39]: 3060 nM
- LC50 (50% lethal concentration) [39]: > 100000 nM
- GI50 [40]: 3110 nM
- LC50 (concentration killing 50% of cells) [40]: > 100000 nM

Structure (SMILES): NS(=O)(=O)c1ccc(Nc2nc(N/N=C/c3ccccn3)nc(Nc3ccccc3)n2)cc1
- inhibition of growth at 10 µM [1]: 96%
- inhibition of growth at 10 µM [2]: 64%
- inhibition of growth at 10 µM [3]: 128%
- inhibition of growth at 10 µM [4]: 149%
- inhibition of growth at 10 µM [5]: 109%
- inhibition of growth at 10 µM [6]: 95%
- inhibition of growth at 10 µM [7]: 122%
- inhibition of growth at 10 µM [8]: 100%
- inhibition of growth at 10 µM [9]: 184%
- inhibition of growth at 10 µM [10]: 182%
- inhibition of growth at 10 µM [11]: 118%
- inhibition of growth at 10 µM [12]: 51%
- inhibition of growth at 10 µM [13]: 167%
- inhibition of growth at 10 µM [14]: 97%
- inhibition of growth at 10 µM [15]: 107%
- inhibition of growth at 10 µM [16]: 95%
- inhibition of growth at 10 µM [17]: 98%
- inhibition of growth at 10 µM [18]: 129%
- inhibition of growth at 10 µM [19]: 120%
- inhibition of growth at 10 µM [20]: 120%
- GI50 [21]: 430 nM
- CC50 [21]: > 100000 nM
- GI50 [22]: 330 nM
- CC50 [22]: > 100000 nM
- GI50 [23]: 2290 nM
- LC50 [23]: > 100000 nM
- GI50 [24]: 1210 nM
- CC50 [24]: 8410 nM
- GI50 [25]: 400 nM
- CC50 [25]: > 100000 nM
- GI50 [26]: 1450 nM
- CC50 [26]: > 100000 nM
- GI50 [27]: 2150 nM
- CC50 [27]: > 100000 nM
- GI50 [28]: 710 nM
- CC50 [28]: > 100000 nM
- GI50 [29]: 1000 nM
- CC50 [29]: 6280 nM
- GI50 [30]: 1500 nM
- GI50 [31]: 780 nM
- LC50 [31]: 4710 nM
- GI50 [32]: 790 nM
- CC50 [32]: > 100000 nM
- GI50 [33]: 440 nM
- LC50 (concentration killing 50% of cells) [33]: > 100000 nM
- GI50 [34]: 440 nM
- LC50 [34]: > 100000 nM
- GI50 [35]: 1060 nM
- CC50 ([35]; read-out: LC50 (the source's name)): > 100000 nM
- GI50 [36]: 1610 nM
- CC50 [36]: 6890 nM
- GI50 [37]: 1070 nM
- CC50 [37]: 6510 nM
- GI50 [38]: 1190 nM
- CC50 [38]: > 100000 nM
- GI50 [39]: 850 nM
- LC50 (50% lethal concentration) [39]: > 100000 nM
- GI50 [40]: 500 nM
- LC50 (concentration killing 50% of cells) [40]: > 100000 nM
